Experimental data as given in US7390819B2 (Altana Pharma AG, priority 2003, dated 2008).

The molecules below were run against T1, human inducible NO-synthase (Homo sapiens, UniProt P35228) (assay: Measurement of inducible NO-synthase activity ([3H]arginine conversion)). Conditions: crude cytosolic fraction containing human inducible NO-synthase; 0.1 μM arginine; 45 to 60 min at 37° C.; read-out: Inhibition of INOS activity [measured as −logIC50 (mol/l)] (converted).
T1 construct: host or cells: crude cytosolic fraction
Type: biochemical
Method: Measurement of Inducible NO-synthase Activity
The assay is performed in 96-well microliter F-plates (Greiner, Frickenhausen, FRG) in a total volume of 100 μl in the presence of 100 nM calmodulin, 226 μM CaCl2, 477 μM MgCl2, 5 μM flavin-adenine-dinucleotide (FAD), 5 μM flavin mononucleotide (FMN), 0.1 mM NADPH, 7 mM glutathione, 10 μM BH4 and […] pH 7.2. Arginine concentrations are 0.1 μM for enzyme inhibition experiments. 150000 dpm of [^3H]arginine are added to the assay mixture. Enzyme reaction is started by the addition of 4 μg of a crude cytosolic fraction containing human inducible NO-synthase and the reaction mixture is incubated for 45 to 60 min at 37° C. Enzyme reaction is stopped by adding 10 μl of 2M MES-buffer pH 5.0. 50 μl of the incubation mixture are transferred into a MADP N65 filtration microtiter plate (Millipore, Eschborn, FRG) containing already 50 μl of AG-50W-X8 cation exchange resin (Biorad, München, FRG). The resin in the Na loaded form is pre-equilibrated in water and 70 μl (corresponding to 50 μl dry beads) are pipetted under heavy stirring with a 8 channel pipette into the filtration plate. After pipetting 50 μl of the enzyme reaction mixture onto the filtration plates, the plates are placed on a filtration manifold (Porvair, Shepperton, UK) and the flow through is collected in Pico scintillation plates (Packard, Meriden, Conn.). The resin in the filtration plates is washed with 75 μl of water (1×50 μl and 1×25 μl) which is also collected in the same plate as the sample. The total flow through of 125 μl is mixed with 175 μl of Microscint-40 scintillation cocktail (Packard) and the scintillation plate is sealed with TopSeal P-foil (Packard). Scintillation plates are counted in a scintillation counter.
For the measurement of inducible NO-synthase-inhibiting potencies of compounds increasing concentrations of inhibitors were included into the incubation mixture. IC50-values were calculated from the percent inhibition at given concentrations by nonlinear least square fitting.
The inhibitory values determined for the compounds according to the invention follow from the following table A, in which the compound numbers correspond to the example numbers.

T1 sequence (P35228 whole entry): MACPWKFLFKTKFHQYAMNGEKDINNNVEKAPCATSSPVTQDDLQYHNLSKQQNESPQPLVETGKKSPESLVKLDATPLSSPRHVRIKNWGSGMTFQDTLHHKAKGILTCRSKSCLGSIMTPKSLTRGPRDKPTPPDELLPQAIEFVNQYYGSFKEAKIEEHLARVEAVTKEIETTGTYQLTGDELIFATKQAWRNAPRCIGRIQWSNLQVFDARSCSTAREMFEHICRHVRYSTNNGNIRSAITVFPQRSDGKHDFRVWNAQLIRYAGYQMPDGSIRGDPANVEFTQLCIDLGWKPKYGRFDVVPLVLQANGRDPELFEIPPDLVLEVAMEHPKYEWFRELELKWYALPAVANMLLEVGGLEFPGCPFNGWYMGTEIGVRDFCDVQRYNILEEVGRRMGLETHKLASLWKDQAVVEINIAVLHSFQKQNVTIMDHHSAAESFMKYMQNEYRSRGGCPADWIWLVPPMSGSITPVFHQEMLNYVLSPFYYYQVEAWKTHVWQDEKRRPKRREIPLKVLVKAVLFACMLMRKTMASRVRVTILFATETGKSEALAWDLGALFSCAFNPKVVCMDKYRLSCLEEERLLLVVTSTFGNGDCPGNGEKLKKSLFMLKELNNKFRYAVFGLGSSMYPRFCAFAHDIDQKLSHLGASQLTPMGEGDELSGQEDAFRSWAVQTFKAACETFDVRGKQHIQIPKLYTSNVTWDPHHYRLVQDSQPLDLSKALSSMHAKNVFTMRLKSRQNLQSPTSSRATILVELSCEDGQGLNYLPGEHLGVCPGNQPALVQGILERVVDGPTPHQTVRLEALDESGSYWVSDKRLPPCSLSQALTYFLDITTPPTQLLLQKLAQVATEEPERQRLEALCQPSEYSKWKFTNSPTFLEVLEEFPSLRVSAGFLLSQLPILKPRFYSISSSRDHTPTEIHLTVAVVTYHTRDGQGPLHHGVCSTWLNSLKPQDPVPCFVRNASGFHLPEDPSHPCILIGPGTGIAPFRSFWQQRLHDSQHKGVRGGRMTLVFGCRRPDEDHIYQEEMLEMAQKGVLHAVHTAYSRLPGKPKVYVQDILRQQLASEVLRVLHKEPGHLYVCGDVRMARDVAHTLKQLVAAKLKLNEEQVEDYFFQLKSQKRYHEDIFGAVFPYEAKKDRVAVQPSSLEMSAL

| SMILES | IC50 [nM] |
| --- | --- |
| COc1ccnc(CCc2nc3cc4ccccc4nc3[nH]2)c1 [compound 1, 2-[2-(4-Methoxypyridin-2-yl)ethyl]-3H-imidazo[4,5-b]quinoline] | 89.1 |
| COc1ccnc(CCc2nc3cc4cc(C)ccc4nc3[nH]2)c1 [compound 2, 2-[2-(4-Methoxypyridin-2-yl)ethyl]-7-methyl-3H-imidazo[4,5-b]quinoline] | 117 |
| COc1ccnc(CCc2nc3cc4cc(-c5ccc(CO)cc5)ccc4nc3[nH]2)c1 [compound 6] | 363 |

The next lines start with the values.

| IC50 [nM] | SMILES |
| --- | --- |
| 135 | COc1ccnc(CCc2nc3cc4cccc(C)c4nc3[nH]2)c1 [compound 3, 2-[2-(4-Methoxypyridin-2-yl)ethyl]-5-methyl-3H-imidazo[4,5-b]quinoline] |
| 102 | COc1ccnc(CCc2nc3cc4cc(OC)ccc4nc3[nH]2)c1 [compound 4, 7-Methoxy-2-[2-(4-methoxypyridin-2-yl)ethyl]-3H-imidazo[4,5-b]quinoline] |
| 77.6 | COc1ccnc(CCc2nc3cc4cc(Br)ccc4nc3[nH]2)c1 [compound 5, 7-Bromo-2-[2-(4-methoxypyridin-2-yl)ethyl]-3H-imidazo[4,5-b]quinoline] |
